Laboratory results as given in patent US7658706B2, “Vascular graft sterilization and decellularization” (RTI Biologics, Inc., priority 2005, dated 2010).
Read-outs that look alike come from different tables or passages of the source.

Experiments:
[1] = system: B. stearothermophilus spores; test: Suspension sterilization: survivor/reduction curves for spores in germicide; assay type: cell-based, Bacillus stearothermophilus
Text: The effectiveness of a sterilant is defined in terms of decimal reduction time (D-value). This is the exposure time (t) used under certain conditions to cause one log reduction (n) (90%) of the initial population. A suspension is expected to follow a predictable death rate regarding a plot of the amount of survivors over time. The negative reciprocal of the slope of regression lines of survivor curves gives the D-value where t=D×n n=[…]
(§1) In order to determine the reduction in spores after processing with cleaning agents, an effective and consistent method was developed. […] It was determined that residual hydrogen peroxide inhibited the growth at concentrations of 0.6% or higher for TSA plates and 6% or higher for blood plates (FIG. 12). It is believed that the catalase contained in the blood agar plates inactivated the hydrogen peroxide. […] Even though the blood agar plates allowed for dilutions as low as 1:10, the titre used was too low to detect more than a 3 log reduction in the process limiting the data collection for the survivor curves.
To ensure consistency, each vial was vortexed before each replicate and all of the material was removed from the pipette tip onto the plate. Disposable plate spreaders were used to prevent cross contamination. The moisture needed to be maintained at a certain level because the plates would dry out at 60° C., but if there was too much moisture the bacteria would streak across the plate and prevent an accurate count. The first procedure implemented was propping the plates open in a laminar flow hood to allow excessive moisture to dry. The second method employed was placing the plates in a beaker with a porous covering to trap some moisture while allowing the excess to evaporate.
Hydrogen peroxide at a concentration of 6% was used at temperatures of 40, 45 and 50° C. to calculate a curve for modeling the temperature effects on spore kill. […] Samples were removed and immediately placed in an ice bath at 10, 15, 20 and 30 min. The vial was well-mixed on a vortex, and then diluted 1:10 in series before plating.
Peracetic acid at concentrations of 0.1%, 0.05% and 0.005% were used only at 40° C. to calculate a curve for modeling the concentration effects on spore kill. […] Samples were removed and immediately placed in an ice bath at various time points depending on the concentration. The vial was well-mixed on a vortex, and then diluted 1:10 in series before plating.
(§2) Typically, a survivor curve is constructed with the initial population at time zero and the resultant populations at various time points. Since not all data points could be completed in the same day, some reduction curves were constructed to compare log reduction in the controls for each experiment over time. This normalized the data to its own experimental episode.

[2] = system: B. stearothermophilus spores
Experimental: Before enumerating the population remaining on tissue following chemical processing, the amount recoverable from the tissue must be determined. The recovery process developed involves the use of sonication, mechanical shaking and agitation on a vortex. Veins were cut into 30 mm segments and clamped at one end. […] The samples were then cut from the clamps and split open over a centrifuge tube containing 39.9 ml of Letheen broth to expose the lumen to the recovery process. A new pair of scissors or a new scalpel blade were used for each vein and the segments were cut over the broth to catch anything that may not have adhered to the surface of the tissue.
The tubes were sonicated at room temperature for ten minutes to break the bacteria from the surfaces. The tubes were then placed on a shaker where they were for another 10 min. The Letheen broth containing the tissue sample was then vortexed for 30 s and diluted in a series of 1:10 dilutions with each dilution plated on blood agar plates. The plates were incubated overnight at 60° C.
The procedure for spike recovery was used to collect data for the reduction curves. Vein segments were inoculated and then treated in one of the following conditions. Hydrogen peroxide (6%) was analyzed at 40° C. and 50° C. while peracetic acid (0.1%) was only tested at 40° C. At each time point, three samples were spiked and treated with one control for recovery efficiency.
as §2
A control was used at each experimental episode to provide a correction factor for the treated samples. The recovered population divided by the correction factor provides the surviving population after treatment.

[3] = system: Bacillus stearothermophilus; test: Growth inhibition by residual germicide on TSA and blood agar plates; assay type: cell-based
Experimental: as §1

[4] = system: B. stearothermophilus; conditions: 6% in DI water, PBS (pH 6) or PBS (pH 7.2), 45° C., sonication
Experimental: In a separate study, 6% hydrogen peroxide was prepared in either DI water, PBS (pH 6) or PBS (pH 7.2). It was then used at 45° C. to treat B. stearothermophilus while under sonication.

[5] = system: collagen; test: Collagen denaturation, quantitative enzyme digestion assay (matrix integrity)
Experimental: One of the major structural components of the extracellular matrix that gives veins their strength is collagen. Damage to collagen can result in mechanical failures such as increased compliance or aneurism formation. It can also result in a cellular response due the exposure of the triple helix when stability is compromised. The amount of collagen denaturation was assessed to evaluate processing conditions with a quantitative enzyme digestion assay. […] Digested and undigested fractions are separated and hydrolyzed with concentrated hydrochloric acid (HCl) to release free amino acids from each fraction. Following neutralization of the acid in 1 N NaOH, levels of hydroxyproline (an amino acid present in high concentrations in collagen) are assessed in each fraction by a calorimetric method at a wavelength of 550 nm (Chloramine T binding, and reduction of the substrate DAB to a colored end product). The level of denatured collagen in a given sample is then expressed as a percent of the trypsin soluble fraction to the sum of both trypsin soluble and trypsin insoluble fractions.
Achieving the appropriate log reduction should not come at the expense of the integrity of the extracellular matrix. […] The effect of hydrogen peroxide at 6% at 40° C. and 50° C. on collagen was compared to PAA at 0.1% at the same specified temperatures.
Digested and undigested fractions are separated and hydrolyzed with concentrated hydrochloric acid (HCl) to release free amino acids from each fraction. Following neutralization of the acid in 1 N NaOH, levels of hydroxyproline (an amino acid present in high concentrations only in collagen) are assessed in each fraction by a calorimetric method (Chloramine T binding, and reduction of the substrate DAB to a colored end product). The level of denatured collagen in a given sample is then expressed as a percent of the trypsin soluble fraction to the sum of both trypsin soluble and trypsin insoluble fractions.

[6] = system: enteric bacteria (E. coli, Enterococcus faecalis or Salmonella enteritidis); conditions: peroxide doses of 0.3 to 15%, 10 min; cited from earlier work
[7] = system: B. subtilis; conditions: hydrogen peroxide alone, 25° C.; cited from earlier work
[8] = system: Bacillus atrophaeus spores; conditions: 7.5% hydrogen peroxide, room temperature, 6 hour incubation; cited from earlier work
[9] = system: B. stearothermophilus; conditions: 26.5% hydrogen peroxide, 25° C.; cited from earlier work
[10] = Bradford Assay of nonspecific proteins in collagenase digested vein samples; set-up: species or system human; conditions: 0.1% peracetic acid versus 6% hydrogen peroxide (FIGS. 29, 30)
Experimental: In a further study, the efficiency of peracetic acid (PAA) versus hydrogen peroxide (HP) was investigated. Samples were treated in either 0.1% PAA or 6% HP and were exposed for varying lengths of time at varying temperatures.
Without wishing to be bound by theory, it is believed that the peracetic acid opens the collagen matrix up to allow for greater penetration of the tissue. It also believed to break down the proteins better than hydrogen peroxide. […] The Bradford Assay (Bradford, 1976) is used to quantify nonspecific proteins in collagenase digested vein samples. The Bradford Assay is a general protein assay, is based on an absorbance shift in a dye (Coomassie brilliant blue G-250 dye (CBBG)). CBBG has an absorbance shift when bound to arginine and hydrophobic amino acid residues (e.g., tryptophan, tyrosine, histidine and phenylalanine) present in protein. The reduction in antigenicity is correlated in the immunohistochemical staining (e.g., groups L and K from Example 5) and the histopathology scores (e.g., prototype recipe from Example 4).

[11] = system: class I MHC antigens in human saphenous vein; test: Immunohistochemical stain for class I MHC antigens after decellularization (Example 1); conditions: high concentrations and high temperatures
Experimental: The effectiveness of cell and cellular debris removal was evaluated using two detergent and two enzyme solutions at various concentrations (Table 2). […] One treatment group combined Triton-X 100 with sodium deoxycholate. Trypsin alone at 0.05% (w/v) or 1.0% (w/v) and in combination with 0.02% (w/v) EDTA were the enzyme solutions used in the decellularization process.
Samples were then rinsed in PBS at room temperature for 10 minutes while continuously shaking. Following the rinse step, the samples were cut in half and either prepared for histology or immunohistochemistry.
Immunohistochemistry was used to determine the level of antigens remaining in the tissue after treatment. […] Samples were prepared in frozen blocks and sectioned with a cryostat. The sections were thawed and then rinsed for blocking and antibody staining. Sections were incubated for 30 minutes in primary antibody (mouse anti-HLA-ABC class I MHC) solution and then for anther 30 minutes in diluted biotinylated secondary antibody (Vector ABC Elite kit) solution. An enzyme substrate, NovaRed (Vector), was used to stain the antibodies red. The counter stain was hematoxylin providing a blue contrast.
A Zeiss Axiophot 2 microscope with a motorized Ludl scanning stage was used with tile field mapping at 5× to capture the entire image in one frame. Particle analysis was performed in Image J to determine the ratio of antigen staining (red) to the total tissue sample.
A blue and green filter was applied to only allow red to pass. Obvious areas of antigen staining were removed due to this variation in red hue. […] All samples were compared to their negatives for a percentage of red staining.
This procedure was applied to all images. […] The treatment groups are labeled according to the detergent or enzyme used followed by the processing conditions. For the Trypsin and Trypsin+EDTA groups, the concentrations ranged from 0.05% (L) to 1.0% (H), the processing temperatures were 37° C. (L), 48° C. (M) and 55° C. (H), and the processing times were 6 hrs (L), 17 hrs (M) and 24 hrs (H).

[12] = system: human saphenous vein; test: Histology (H&E) for cellularity and matrix (Example 1); conditions: 1.0% Cholate at 48° C.
Experimental: Samples of human saphenous veins 10 mm in length were placed in each of the test solution at 37° C. or 48° C. for both 6 and 24 hours while continuously shaking. Samples were then rinsed in PBS at room temperature for 10 minutes while continuously shaking. Following the rinse step, the samples were cut in half and either prepared for histology or immunohistochemistry.
Samples were placed in 10% buffered formalin immediately following the rinse step and remained there for at least 24 hours before further preparation. Then, the samples were embedded in paraffin and stained with hematoxylin and eosin (H&E) to determine cellularity.
The results of the immunohistochemical stain were compared to histology slides stained for cellularity (FIGS. 7 to 10). […] The extracellular matrix is preserved in each segment except with 1.0% Cholate at 48° C.

[13] = Biocompatibility of the detergent injected in a rat; assay type: in vivo, Sprague Dawley rats; conditions: 0.25%, 0.1%, 0.01%, 0.001% in four sites, 6 weeks after surgery
Experimental: Four implants from each group go into one rat for a total of 7 rats and 28 implant sites. An eighth rat is injected in four sites with decreasing concentrations of sodium deoxycholate (0.25%, 0.1%, 0.01%, 0.001%) to measure the biocompatibility of the detergent.

OO [hydrogen peroxide]
D-value ([1]; 6% peroxide, 40° C., spores in suspension (FIG. 16)): 47.39 | time for a 6 log reduction ([1]; 6% peroxide, 40° C., suspension): ~5 hours | D-value ([1]; 6% peroxide, 45° C., spores in suspension (FIG. 15)): 23.0 | D-value ([1]; 6% peroxide, 50° C., spores in suspension (FIG. 14)): 9.87 | time for a 6 log reduction ([1]; 6% peroxide, 50° C., suspension): less than an hour | reduction of the D-value by an increase in temperature ([1]; 6% peroxide, from 40° C. to 50° C., suspension): approximately 80% | time for a 6 log reduction ([2]; 6% hydrogen peroxide, 50° C., spiked tissue): less than 40 minutes | D-value ([2]; 6% hydrogen peroxide, 50° C., spiked tissue (FIG. 20)): 6.63 | D-value with tissue ([2]; 6% peroxide with tissue, temperature not stated): 5.34 | D-value ([2]; 6% peroxide, 40° C., spiked tissue (FIG. 21)): 15.17 | decrease of D-value with tissue versus suspension ([2]; 6% peroxide, temperature not stated): approximately 4 minutes | residual concentration that inhibited the growth ([3]; TSA plates): ≥ 0.6% | residual concentration that inhibited the growth ([3]; blood plates): ≥ 6% | effect of buffer/pH on sterilizing [4]: a buffered solution may be more effective | ratio of degraded collagen compared to untreated controls [5]: significantly altered matrix properties | log microbial reductions [6]: below 0.2 log | D-value [7]: 55.2 min | growth of spores [8]: No growth was detected | D-value [9]: 4.7 min

CC(=O)OO [peracetic acid]
D-value ([1]; 0.005% PAA, 40° C., spores in suspension (FIG. 19)): 6.45 | D-value ([1]; 0.05% PAA, 40° C., spores in suspension (FIG. 18)): 1.90 | time for a 6 log reduction ([1]; 0.05% PAA, 40° C., suspension): 11 minutes | growth inhibition by residual germicide ([3]; within the processing concentrations, blood agar plates (FIG. 13)): no inhibition was observed | amount of digestible hydroxyproline ([5]; 0.1% PAA (FIGS. 31, 32)): did not increase the amount of digestible hydroxyproline | ratio of degraded collagen compared to untreated controls ([5]; 6% hydrogen peroxide, 0.1% PAA, 50° C., one hour (FIG. 22)): significantly altered matrix properties | efficiency in breaking down proteins [10]: more efficient than 6% hydrogen peroxide in significantly breaking down proteins

sodium deoxycholate
removal of class I MHC staining [11]: approximately 100% | staining [11]: approximately 0% | extracellular matrix in histology [12]: large holes within the venous wall and separation between the fibers | collagen degradation compared to untreated controls ([5]; Triton 1.0%, Cholate 0.25%, 48° C., 24 hours, constant agitation (FIG. 11)): A significant degradative effect was not seen | response to injected detergent [13]: No response was noted
